Results published in patent US11166960B2, “Modified release preparations containing oxcarbazepine and derivatives thereof” (Supernus Pharmaceuticals, Inc., priority 2006, dated 2021).
Like-named read-outs stand apart in the source and are kept apart here.

How the values were obtained:
[1] = Solubility of oxcarbazepine in the presence of excipients; assay type: physicochemical; details: de-ionized water, thermodynamic from solid
[2] = as above; assay type: physicochemical
Description: The solubility of oxcarbazepine in the presence of excipients was evaluated as follows: Excipients were dissolved in phosphate buffer to make solutions with concentrations shown in Table 3. One gram of oxcarbazepine was then mixed with 19 gm of the excipient solution. The mixture was rocked overnight at room temperature and then filtered using 0.22 μm filter. The filtrates were analyzed by HPLC.

## NC(=O)N1c2ccccc2CC(=O)c2ccccc21 [Oxcarbazepine]
[1]
  solubility: 273 µg/mL
[2]; Kollidon 17 1% w/w in phosphate buffer
  solubility: 171.7 µg/mL
[2]; aqueous with cosolvent or surfactant or cyclodextrin, thermodynamic from solid, Hydroxypropyl betacyclodextrin (HBCD) 5% w/w in phosphate buffer, read-out: Solubility
  solubility: 1020 µg/mL
[2]; aqueous with cosolvent or surfactant or cyclodextrin, thermodynamic from solid, SLS/Stearic Acid/PEG400 5, 1, 1% w/w in phosphate buffer, read-out: Solubility
  solubility: 3280 µg/mL
[2]; phosphate buffer (control, no excipient), aqueous buffer, thermodynamic from solid, Phosphate Buffer Control, room temperature overnight, read-out: Solubility
  solubility: 401 µg/mL
[2]; phosphate buffer with 1% w/w Cremophor RH40, aqueous with cosolvent or surfactant or cyclodextrin, thermodynamic from solid, Cremophor RH40 1% w/w in phosphate buffer, read-out: Solubility
  solubility: 314 µg/mL
[2]; phosphate buffer with 1% w/w SLS and 1% w/w HBCD, aqueous with cosolvent or surfactant or cyclodextrin, thermodynamic from solid, SLS/HBCD 1, 1% w/w in phosphate buffer, read-out: Solubility
  solubility: 349 µg/mL
[2]; phosphate buffer with 5% w/w SLS and 1% w/w PEG400, aqueous with cosolvent or surfactant or cyclodextrin, thermodynamic from solid, SLS/Polyethylene Glycol 400 (PEG400) 5, 1% w/w in phosphate buffer, read-out: Solubility
  solubility: 3050 µg/mL
[2]; phosphate buffer with 5% w/w docusate sodium, aqueous with cosolvent or surfactant or cyclodextrin, thermodynamic from solid, Docusate Sodium 5% w/w in phosphate buffer, read-out: Solubility
  solubility: 6550 µg/mL
[2]; phosphate buffer with 5% w/w sodium lauryl sulfate (SLS), aqueous with cosolvent or surfactant or cyclodextrin, thermodynamic from solid, Sodium Lauryl Sulfate (SLS) 5% w/w in phosphate buffer, read-out: Solubility
  solubility: 4110 µg/mL
